The results in this text go back to the supplement of paper PMC11208160.

This data set in a line: recombinant barcode read abundance after kanamycin selection (control-corrected) (log10(CPM+1)); higher = more efficient recombination; sequences stand for … in AGTGCAGAGAAAATCGGCCAGTTTTCTCTGCCTGCAGTCCGCATGCCGT…AGATTTATGCAGCGGACTGCCTTTCTCCCAAAGTGATAAACCGGACAGTATCATGGACCGGTTTTCCCGGTAATCCGTATTTGCAAGGTTGGTTTCACT; site = the 11-nt target. Summed up:
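For this pooled screen, each oligo contained a promoter, a target, a barcode and the J23119-driven first 104 bases of the bridge RNA. Gibson cloning placed it into a vector supplying the remaining 73 bp and a T7-inducible recombinase, and the pool was co-electroporated into E. coli with a donor plasmid. Recombination efficiency is derived from barcode counts per million at recombinant junctions after averaging and control correction, and is expressed on a log scale as log10(CPM+1), with selection on chloramphenicol/ampicillin/kanamycin plus 0.1 mM IPTG against a chloramphenicol/ampicillin LB agar control.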
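Also: IS621 recombinase and bridge RNA in Escherichia coli cells.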

As for “TGTGATCCTTGGGTTCTAACCTGTTGCAT (site TGTGATCCTAT)”, the “recombinant barcode read abundance (log10)” value came to 1.4.

Take “TGTGCAACTTGGGTTCTAACCTGTTGCTG (site ATGCTTGCTTG)”: the “recombinant barcode read abundance (log10)” value was 0.353.

Regarding “TGTGCAACTTGGGTTCTAACCTGTTGCTG (site TGTGCAACTCA)”, the “recombinant barcode read abundance (log10)” value was 0.284.

Regarding “TGTGGAGCTTGGGTTCTAACCTGTTGCCG (site TGTAGAGCTCG)”, the “recombinant barcode read abundance (log10)” value turned out to be 0.448.

With “TGTGGAGCTTGGGTTCTAACCTGTTGCCG (site TGTCGAGCTCG)”, the “recombinant barcode read abundance (log10)” value is 0.469.

“TGTGGAGCTTGGGTTCTAACCTGTTGCCG (site TGTGGAGCTCG)”: the “recombinant barcode read abundance (log10)” value came out at 1.24.

For the sequence “TGTGGAGCTTGGGTTCTAACCTGTTGCCG (site TGTTGAGCTCG)”, the “recombinant barcode read abundance (log10)” value is 0.00933.

“TGTGTCCCTTGGGTTCTAACCTGTTGCCT (site TGAGTCCCTAG)”: the “recombinant barcode read abundance (log10)” value is 0.159.

Turning to “TGTGTCCCTTGGGTTCTAACCTGTTGCCT (site TGCGTCCCTAG)”, the “recombinant barcode read abundance (log10)” value was determined as 0.139.

With “TGTGTCCCTTGGGTTCTAACCTGTTGCCT (site TGGGTCCCTAG)”, the “recombinant barcode read abundance (log10)” value was determined as 0.123.

Take “TGTGTCCCTTGGGTTCTAACCTGTTGCCT (site TGTGTCCCTAG)”: the “recombinant barcode read abundance (log10)” value turned out to be 1.14.

On to “TGTTAGTCTTGGGTTCTAACCTGTTGCCG (site TGTTAGACTAG)”, for which the “recombinant barcode read abundance (log10)” value stood at 0.0136.

As for “TGTTAGTCTTGGGTTCTAACCTGTTGCCG (site TGTTAGTCTCG)”, the “recombinant barcode read abundance (log10)” value amounted to 0.0597.

As to “TGTTCAGCTTGGGTTCTAACCTGTTGCCT (site CACAGGCCTCT)”, the “recombinant barcode read abundance (log10)” value came to 0.0146.

On to “TGTTCAGCTTGGGTTCTAACCTGTTGCCT (site TGTTCAGCTAG)”, for which the “recombinant barcode read abundance (log10)” value came out at 0.066.

For “TGTTCTACTTGGGTTCTAACCTGTTGCTT (site TGATCTACTAA)”, the “recombinant barcode read abundance (log10)” value is 0.0326.

Take “TGTTCTACTTGGGTTCTAACCTGTTGCTT (site TGCTCTACTAA)”: the “recombinant barcode read abundance (log10)” value is 0.246.

On to “TGTTCTACTTGGGTTCTAACCTGTTGCTT (site TGGTCTACTAA)”, for which the “recombinant barcode read abundance (log10)” value came to 0.0191.

On to “TGTTCTACTTGGGTTCTAACCTGTTGCTT (site TGTTCTACTAA)”, for which the “recombinant barcode read abundance (log10)” value came out at 0.0296.

Turning to “TGTTGAGCTTGGGTTCTAACCTGTTGCAG (site TGTAGAGCTCT)”, the “recombinant barcode read abundance (log10)” value stood at 0.148.

As for “TGTTGAGCTTGGGTTCTAACCTGTTGCAG (site TGTTGAGCTCT)”, the “recombinant barcode read abundance (log10)” value was 0.468.

In the case of “TGTTGGACTTGGGTTCTAACCTGTTGCTT (site TCTTAGACTAA)”, the “recombinant barcode read abundance (log10)” value was 0.0262.

Take “TGTTGGACTTGGGTTCTAACCTGTTGCTT (site TGTTGGACTAA)”: the “recombinant barcode read abundance (log10)” value is 0.16.

For the sequence “TGTTGGTCTTGGGTTCTAACCTGTTGCTT (site GAACTCCCTCC)”, the “recombinant barcode read abundance (log10)” value turned out to be 0.0579.

Take “TGTTGGTCTTGGGTTCTAACCTGTTGCTT (site TGTTGGTCTAA)”: the “recombinant barcode read abundance (log10)” value worked out at 0.0212.

For the sequence “TGTTGTCCTTGGGTTCTAACCTGTTGCTG (site AACATAACTAC)”, the “recombinant barcode read abundance (log10)” value was determined as 0.141.

As to “TGTTGTCCTTGGGTTCTAACCTGTTGCTG (site TGTTGTCCTCA)”, the “recombinant barcode read abundance (log10)” value is 0.0482.

Consider “TGTTGTGCTTGGGTTCTAACCTGTTGCCT (site TGGCGTGCTAG)”, for which the “recombinant barcode read abundance (log10)” value amounted to 0.101.

As for “TGTTGTGCTTGGGTTCTAACCTGTTGCCT (site TGTTGTGCTAG)”, the “recombinant barcode read abundance (log10)” value was determined as 0.109.

Consider “TTAAATCCTTGGGTTCTAACCTGTTGCCT (site ATAAATCCTAG)”, for which the “recombinant barcode read abundance (log10)” value was 0.143.

“TTAAATCCTTGGGTTCTAACCTGTTGCCT (site CTAAATCCTAG)”: the “recombinant barcode read abundance (log10)” value came to 0.183.

With “TTAAATCCTTGGGTTCTAACCTGTTGCCT (site GTAAATCCTAG)”, the “recombinant barcode read abundance (log10)” value was determined as 0.249.

Take “TTAAATCCTTGGGTTCTAACCTGTTGCCT (site TTAAATCCTAG)”: the “recombinant barcode read abundance (log10)” value stood at 0.219.

Take “TTAACGGCTTGGGTTCTAACCTGTTGCCT (site TTAACGGCTAG)”: the “recombinant barcode read abundance (log10)” value came out at 0.556.

On to “TTAACGGCTTGGGTTCTAACCTGTTGCCT (site TTCACGGCTAG)”, for which the “recombinant barcode read abundance (log10)” value was 0.186.

Take “TTACAGGCTTGGGTTCTAACCTGTTGCCG (site GGCATCCCTTA)”: the “recombinant barcode read abundance (log10)” value stood at 0.0374.

Take “TTACAGGCTTGGGTTCTAACCTGTTGCCG (site TTACAGGCTCG)”: the “recombinant barcode read abundance (log10)” value came out at 1.13.

For “TTACCAACTTGGGTTCTAACCTGTTGCCT (site TTACCAACTAG)”, the “recombinant barcode read abundance (log10)” value was found to be 1.61.

Regarding “TTACCAACTTGGGTTCTAACCTGTTGCCT (site TTACCCACTAG)”, the “recombinant barcode read abundance (log10)” value was 0.629.

For “TTACCAACTTGGGTTCTAACCTGTTGCCT (site TTACCGACTAG)”, the “recombinant barcode read abundance (log10)” value was determined as 0.0912.

As to “TTACCAACTTGGGTTCTAACCTGTTGCCT (site TTACCTACTAG)”, the “recombinant barcode read abundance (log10)” value is 0.12.

Turning to “TTACCGACTTGGGTTCTAACCTGTTGCCT (site TTACCAACTAG)”, the “recombinant barcode read abundance (log10)” value was determined as 1.23.

For the sequence “TTACCGACTTGGGTTCTAACCTGTTGCCT (site TTACCCACTAG)”, the “recombinant barcode read abundance (log10)” value turned out to be 0.242.

With “TTACCGACTTGGGTTCTAACCTGTTGCCT (site TTACCGACTAG)”, the “recombinant barcode read abundance (log10)” value was 2.33.

Take “TTACCGACTTGGGTTCTAACCTGTTGCCT (site TTACCTACTAG)”: the “recombinant barcode read abundance (log10)” value came out at 0.0567.

Regarding “TTACGTCCTTGGGTTCTAACCTGTTGCGG (site TCACGTCCTCC)”, the “recombinant barcode read abundance (log10)” value was 1.31.

On to “TTACGTCCTTGGGTTCTAACCTGTTGCGG (site TTACGTCCTCC)”, for which the “recombinant barcode read abundance (log10)” value came out at 1.74.

Turning to “TTAGACCCTTGGGTTCTAACCTGTTGCAG (site AGGTCTACTTG)”, the “recombinant barcode read abundance (log10)” value stood at 0.0942.

Take “TTAGACCCTTGGGTTCTAACCTGTTGCAG (site TTAGACCCTCT)”: the “recombinant barcode read abundance (log10)” value stood at 3.46.

On to “TTAGACCCTTGGGTTCTAACCTGTTGCCT (site ATAGACCCTAG)”, for which the “recombinant barcode read abundance (log10)” value was determined as 1.3.

Regarding “TTAGACCCTTGGGTTCTAACCTGTTGCCT (site CTAGACCCTAG)”, the “recombinant barcode read abundance (log10)” value stood at 1.11.

On to “TTAGACCCTTGGGTTCTAACCTGTTGCCT (site GTAGACCCTAG)”, for which the “recombinant barcode read abundance (log10)” value amounted to 0.341.

For “TTAGACCCTTGGGTTCTAACCTGTTGCCT (site TTAGACCCTAG)”, the “recombinant barcode read abundance (log10)” value came out at 2.99.

In the case of “TTAGACTCTTGGGTTCTAACCTGTTGCCT (site TTAGACTCTAG)”, the “recombinant barcode read abundance (log10)” value was found to be 2.48.

Take “TTAGACTCTTGGGTTCTAACCTGTTGCCT (site TTCGACGCTAG)”: the “recombinant barcode read abundance (log10)” value is 0.172.

“TTAGACTCTTGGGTTCTAACCTGTTGCTA (site TTAGACTCTTA)”: the “recombinant barcode read abundance (log10)” value is 2.36.

For the sequence “TTAGACTCTTGGGTTCTAACCTGTTGCTA (site TTAGACTCTTG)”, the “recombinant barcode read abundance (log10)” value was determined as 1.25.

As to “TTAGAGACTTGGGTTCTAACCTGTTGCCT (site TTAGAGACTAG)”, the “recombinant barcode read abundance (log10)” value is 2.32.

Consider “TTAGAGACTTGGGTTCTAACCTGTTGCCT (site TTAGAGCCTAG)”, for which the “recombinant barcode read abundance (log10)” value is 0.303.

On to “TTAGAGACTTGGGTTCTAACCTGTTGCCT (site TTAGAGGCTAG)”, for which the “recombinant barcode read abundance (log10)” value worked out at 1.4.

Turning to “TTAGAGACTTGGGTTCTAACCTGTTGCCT (site TTAGAGTCTAG)”, the “recombinant barcode read abundance (log10)” value was determined as 0.195.

Regarding “TTAGATCCTTGGGTTCTAACCTGTTGCAT (site TTAGATCCTAT)”, the “recombinant barcode read abundance (log10)” value was 1.62.

Turning to “TTAGATCCTTGGGTTCTAACCTGTTGCAT (site TTAGGTCCTCT)”, the “recombinant barcode read abundance (log10)” value stood at 0.00789.

“TTAGGGCCTTGGGTTCTAACCTGTTGCCT (site TTAGGGACTAG)”: the “recombinant barcode read abundance (log10)” value worked out at 0.0406.

As to “TTAGGGCCTTGGGTTCTAACCTGTTGCCT (site TTAGGGCCTAG)”, the “recombinant barcode read abundance (log10)” value came to 0.719.

Turning to “TTAGGGCCTTGGGTTCTAACCTGTTGCCT (site TTAGGGGCTAG)”, the “recombinant barcode read abundance (log10)” value was determined as 0.0469.

“TTAGGGCCTTGGGTTCTAACCTGTTGCCT (site TTAGGGTCTAG)”: the “recombinant barcode read abundance (log10)” value turned out to be 0.0494.

On to “TTAGGTCCTTGGGTTCTAACCTGTTGCTT (site TTAAGTCCTAT)”, for which the “recombinant barcode read abundance (log10)” value turned out to be 0.357.

Turning to “TTAGGTCCTTGGGTTCTAACCTGTTGCTT (site TTAGGTCCTAA)”, the “recombinant barcode read abundance (log10)” value is 1.64.

Take “TTAGTAGCTTGGGTTCTAACCTGTTGCCT (site TTAGTAGCTAG)”: the “recombinant barcode read abundance (log10)” value was found to be 1.84.

Take “TTAGTAGCTTGGGTTCTAACCTGTTGCCT (site TTAGTCGCTAG)”: the “recombinant barcode read abundance (log10)” value came out at 0.0769.

For “TTAGTAGCTTGGGTTCTAACCTGTTGCCT (site TTAGTGGCTAG)”, the “recombinant barcode read abundance (log10)” value was determined as 0.0632.

In the case of “TTAGTAGCTTGGGTTCTAACCTGTTGCCT (site TTAGTTGCTAG)”, the “recombinant barcode read abundance (log10)” value worked out at 0.0874.

Turning to “TTAGTCCCTTGGGTTCTAACCTGTTGCCT (site TTAGTACCTAG)”, the “recombinant barcode read abundance (log10)” value was determined as 0.113.

“TTAGTCCCTTGGGTTCTAACCTGTTGCCT (site TTAGTCCCTAG)”: the “recombinant barcode read abundance (log10)” value is 2.42.

Regarding “TTAGTCCCTTGGGTTCTAACCTGTTGCCT (site TTAGTGCCTAG)”, the “recombinant barcode read abundance (log10)” value was 0.202.

As for “TTAGTCCCTTGGGTTCTAACCTGTTGCCT (site TTAGTTCCTAG)”, the “recombinant barcode read abundance (log10)” value was 0.0847.
